# T1: rh-GCase (Homo sapiens, UniProt P04062)
# T1 sequence (P04062 40-536): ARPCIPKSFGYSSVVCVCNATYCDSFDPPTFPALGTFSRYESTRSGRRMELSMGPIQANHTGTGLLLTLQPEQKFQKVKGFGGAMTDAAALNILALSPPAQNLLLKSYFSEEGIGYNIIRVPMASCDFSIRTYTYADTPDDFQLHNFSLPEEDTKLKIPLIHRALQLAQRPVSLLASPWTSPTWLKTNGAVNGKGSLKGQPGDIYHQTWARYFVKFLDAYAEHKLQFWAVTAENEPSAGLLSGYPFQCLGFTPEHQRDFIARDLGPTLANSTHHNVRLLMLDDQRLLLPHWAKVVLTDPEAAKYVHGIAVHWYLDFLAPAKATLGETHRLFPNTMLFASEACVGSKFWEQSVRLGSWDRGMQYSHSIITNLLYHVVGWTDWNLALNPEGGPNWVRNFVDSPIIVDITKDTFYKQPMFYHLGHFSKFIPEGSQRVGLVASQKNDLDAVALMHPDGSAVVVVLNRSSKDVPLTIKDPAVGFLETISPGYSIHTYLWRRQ
# How the values were obtained:
# rh-GCase [1] = biological target: T1, rh-GCase; assay: rh-GCase inhibition study (in-situ screening and IC50 of resynthesized compounds); assay type: biochemical; conditions: for IC50: resynthesized compounds, read-out: IC50 against rh-GCase
# rh-GCase [2] = biological target: T1, rh-GCase; assay: Thermal stability shift assay (fluorescence-based thermal denaturation); assay type: binding; conditions: compared to Tm of rh-GCase without small molecule; for ΔTm at 100 µM: pH 7, 100 µM, read-out: In-vitro rh-GCase stabilization ΔTm; for In-vitro rh-GCase stabilization ΔTm: 100 µM, pH 7.0
# Description: The stability of rh-GCase was assessed using a modified fluorescence thermal stability assay on a Rotor-Gene system in a neutral pH buffer (phosphate buffer, pH 7.0). […] A thermal gradient was applied to the plate at a rate of 1 °C/minute, during which time the fluorescence of SYPRO Orange was continuously monitored. The fluorescence intensity at each temperature was normalized to the maximum fluorescence after complete thermal denaturation.
# [3] = test system: β-glucosidase activity in p.Asn370Ser/p.Leu29Alafs*18 Gaucher fibroblasts (GM00372); assay: Intact cell β-glucosidase activity study (chaperone activity) in Gaucher fibroblasts; assay type: cell-based, human; conditions: compared to untreated cells (=1)
# Description: (§1) GM00372 cells were seeded into 96-well culture plates. […] The final concentration of DMSO was <0.5% which had no cytotoxicity or glucosidase inhibition. The cells were incubated for 5 days and the medium for DMSO-treated cells or compound-treated cells was renewed every 3 days. The enzyme activity assay was performed after removing the medium supplemented with compounds. Compounds were evaluated at all concentrations in triplicate. The monolayers were washed with Dulbecco’s PBS solution (Gibco pH 7.4). PBS (16 μL) and acetate buffer (0.2 M, 16 μL, pH 4.0) were added to each well. The reaction was started by the addition of 4-methylumbelliferyl β-D-glucoside (4 mM, 25 μL, Sigma) to each well, followed by incubation at 37 °C for 2 h. The reaction was stopped by lysing the cells with glycine buffer (0.2 M, 200 μL, pH 10.8). The fluorescence was also measured by the release of 4-methylumbelliferone with an excitation wavelength of 355 nm and an emission wavelength of 460 nm (SpectraMax M5, Molecular Devices). The fluorescence of untreated cells was compared with those treated with compounds. Among the resynthesized compounds, compound 16 was further subjected to the same experiments described above thoroughly at the concentration of 0–500 nM. Likewise, 4-methylumbelliferyl α-D-glucoside (4 mM, 25 μL, Sigma) was used to evaluate the cellular α-glucosidase activity in GM00372 cells treated with or without compound 16 (0–500 nM).
# [4] = test system: Gaucher p.Asn370Ser fibroblasts (GM00372); assay: rh-GCase activity in Gaucher patient fibroblasts (co-administration), GM00372; assay type: cell-based, human; conditions: rh-GCase 0.17 μM, 16 at 1 μM, 24 h
# Description: (§2) Gaucher patient fibroblasts (GM00372 and GM00877) (2 × 10^4 cells) were seeded in 48-well culture plates and incubated overnight. […] After 24 h, the medium was refreshed without rh-GCase and SMPSs, then the cells were incubated for another 24 h. Cells were harvested by trypsinization and the cell pellets were washed twice with PBS and lysed with lysis buffer containing 0.1% Triton X-100, 50 mM Tris-HCl, and 150 mM NaCl. GCase activity assay was performed by mixing lysate (10 μl) and substrate (90 μL of 4 mM 4-methylumbelliferyl β-D-glucopyranoside) in 0.1 M NaOAc and incubating at 37 °C for 1 h. Reactions were terminated by adding 0.2 N glycine-NaOH, pH 10.7. The fluorescence was detected at excitation/emission wavelengths 355/460 nm.
# [5] = test system: p.Leu444Pro Gaucher fibroblasts (GM00877); assay: rh-GCase activity in Gaucher patient fibroblasts (co-administration), GM00877; assay type: cell-based, human; conditions: rh-GCase 0.17 μM, 16 at 1 μM, 24 h
# Description: as §2
# [6] = test system: cellular α-glucosidase activity in GM00372 cells; assay: Intact cell α-glucosidase activity study in Gaucher fibroblasts; assay type: cell-based, human; conditions: 0–500 nM
# Description: as §1, with “Likewise, 4-methylumbelliferyl α-D-glucoside (4 mM, 25 μL, Sigma) was used to evaluate the cellular α-glucosidase activity in GM00372 cells treated with or without compound 16 (0–500 nM).” left out
# [7] = Fluorescence-based thermal shift assay of pegylated rh-GCases; assay type: physicochemical; conditions: rh-GCase modified by MeO-PEG-NHS (Mw 5000 Da), molar ratio reagent to enzyme
# Text: Supplementary Figure 1. Characterization of rh-GCase modified by MeO-PEG-NHS (Mw 5000 Da) with different molar ratios of reagent to the enzyme. (A) SDS-PAGE analysis of the pegylated rh-GCases indicated the acceptable effectiveness of the modification reaction, but reacting rh-GCase with longer MeO-PEG-NHS reagents resulted the incomplete pegylation (data not shown). (B) The […]
# (also on this page, place not known: rh -GCase MeO -PEG-NHS rh -GCase MeO -PEG-NHS 40 50 60 70 0 20 40 60 80 100 Mono-PEG5k (50 eq) Mono-PEG5k (100 eq) Temperature (oC) Unfolded protein (%)) […]
molecule,measurement,setting,value
C/C(=C\c1ccccc1)C(=O)NC[C@@H]1NC[C@@H](O)[C@H](O)[C@H]1CO [Compound 15],IC50,rh-GCase [1],30 ± 7.8 nM
same,ΔTm at 100 µM,rh-GCase [2],11.3 °C
same,β-glucosidase activity enhancement in p.Asn370Ser cells,[3]; 100 nM,1.8 fold
Cc1ccc(C(=O)NC[C@@H]2NC[C@@H](O)[C@H](O)[C@H]2CO)c([N+](=O)[O-])c1 [Compound 24],IC50,rh-GCase [1],11 ± 0.7 nM
O=C(NC[C@@H]1NC[C@@H](O)[C@H](O)[C@H]1CO)c1ccc2ccccc2c1 [Compound 23],IC50,rh-GCase [1],63.6 ± 9.5 nM
"OC[C@H]1CNC[C@@H](O)[C@@H]1O [IFG, isofagomine]",activity enhancement on co-administration with rh-GCase compared to rh-GCase alone,[4],7 fold
same,activity enhancement on co-administration with rh-GCase compared to rh-GCase alone,[5],6 fold
same,ΔTm at 100 µM,rh-GCase [2],9.6 °C
same,β-glucosidase activity enhancement in p.Asn370Ser cells,[3]; 1000 nM,1.7 fold
COc1ccc(Br)cc1/C=C/C(=O)NC[C@@H]1NC[C@@H](O)[C@H](O)[C@H]1CO [Compound 25],IC50,rh-GCase [1],26.4 ± 8 nM
O=C(NCC1NCC(O)C(O)C1CO)c1ccc2ccccc2c1 (stereo not shown) [S1],IC50,rh-GCase [1],3.7 ± 0.4 nM
same,fold greater inhibitory potency than IFG,rh-GCase [1]; rh-GCase IC50 compared with IFG,50 fold
O=C(Cc1ccc(Br)cc1)NC[C@@H]1NC[C@@H](O)[C@H](O)[C@H]1CO [Compound 17],IC50,rh-GCase [1],5.1 ± 1.1 nM
same,In-vitro rh-GCase stabilization ΔTm,rh-GCase [2],13.2 °C
same,ΔTm at 100 µM,rh-GCase [2],14.2 °C
same,β-glucosidase activity enhancement in p.Asn370Ser cells,[3]; 100 nM,1.7 fold
Cc1ccc(C(=O)NC[C@H]2NC[C@@H](O)[C@H](O)[C@H]2CO)c([N+](=O)[O-])c1 [Compound 18],IC50,rh-GCase [1],191 ± 43 nM
O=C(/C=C/c1cccc(Br)c1)NC[C@@H]1NC[C@@H](O)[C@H](O)[C@H]1CO [Compound 16],IC50,rh-GCase [1],4 ± 0.7 nM
same,activity enhancement on co-administration with rh-GCase compared to rh-GCase alone,[4],13 fold
same,activity enhancement on co-administration with rh-GCase compared to rh-GCase alone,[5],9.1 fold
same,influence on cellular α-glucosidase activity,[6],without impairing cellular α-glucosidase activity
same,In-vitro rh-GCase stabilization ΔTm,rh-GCase [2],14.2 °C
same,ΔTm at 100 µM,rh-GCase [2],13.2 °C
same,β-glucosidase activity enhancement in p.Asn370Ser cells,[3]; 10 nM,2.5 fold
same,β-glucosidase activity enhancement in p.Asn370Ser cells,[3]; 25 nM,up to 2.7 fold
O=C(Cc1ccc(Br)cc1)NC[C@H]1NC[C@@H](O)[C@H](O)[C@H]1CO [Compound 22],IC50,rh-GCase [1],250 ± 49 nM
COc1ccc(C(=O)NC[C@H]2NC[C@@H](O)[C@H](O)[C@H]2CO)c(OC)c1 [Compound 20],IC50,rh-GCase [1],45.6 ± 13.7 nM
COc1ccc(C(=O)NC[C@@H]2NC[C@@H](O)[C@H](O)[C@H]2CO)c(OC)c1 [Compound 26],IC50,rh-GCase [1],200 ± 32 nM
O=C(NC[C@H]1NC[C@@H](O)[C@H](O)[C@H]1CO)c1cccc2c1C(=O)c1ccccc1-2 [Compound 21],IC50,rh-GCase [1],25.9 ± 11.1 nM
O=C(NC[C@@H]1NC[C@@H](O)[C@H](O)[C@H]1CO)c1cccc2c1C(=O)c1ccccc1-2 [Compound 27],IC50,rh-GCase [1],68.3 ± 22 nM
COc1ccc(Br)cc1/C=C/C(=O)NC[C@H]1NC[C@@H](O)[C@H](O)[C@H]1CO [Compound 19],IC50,rh-GCase [1],7.7 ± 1.5 nM
"rh-GCase: recombinant human GCase used for enzyme replacement therapy (protein, UniProt P04062 40-536, looked up) Lysosomal acid …: ARPCIPKSFGYSSVVCVCNATYCDSFDPPTFPALGTFSRYESTRSGRRMELSMGPIQANHTGTGLLLTLQPEQKFQKVKGFGGAMTDAAALNILALSPPAQNLLLKSYFSEEGIGYNIIRVPMASCDFSIRTYTYADTPDDFQLHNFSLPEEDTKLKIPLIHRALQLAQRPVSLLASPWTSPTWLKTNGAVNGKGSLKGQPGDIYHQTWARYFVKFLDAYAEHKLQFWAVTAENEPSAGLLSGYPFQCLGFTPEHQRDFIARDLGPTLANSTHHNVRLLMLDDQRLLLPHWAKVVLTDPEAAKYVHGIAVHWYLDFLAPAKATLGETHRLFPNTMLFASEACVGSKFWEQSVRLGSWDRGMQYSHSIITNLLYHVVGWTDWNLALNPEGGPNWVRNFVDSPIIVDITKDTFYKQPMFYHLGHFSKFIPEGSQRVGLVASQKNDLDAVALMHPDGSAVVVVLNRSSKDVPLTIKDPAVGFLETISPGYSIHTYLWRRQ",Tm,[7],49.1 ± 0.1 oC
"Mono-PEG5k (100 eq): rh-GCase modified by MeO-PEG-NHS (Mw 5000 Da), 100 eq of reagent (conjugate, UniProt P04062 40-536, looked up, PEG 5 kDa, 100 eq, rh-GCase modified by MeO-PEG-NHS (Mw 5000 Da), 100 eq of reagent) Lysosomal acid …: ARPCIPKSFGYSSVVCVCNATYCDSFDPPTFPALGTFSRYESTRSGRRMELSMGPIQANHTGTGLLLTLQPEQKFQKVKGFGGAMTDAAALNILALSPPAQNLLLKSYFSEEGIGYNIIRVPMASCDFSIRTYTYADTPDDFQLHNFSLPEEDTKLKIPLIHRALQLAQRPVSLLASPWTSPTWLKTNGAVNGKGSLKGQPGDIYHQTWARYFVKFLDAYAEHKLQFWAVTAENEPSAGLLSGYPFQCLGFTPEHQRDFIARDLGPTLANSTHHNVRLLMLDDQRLLLPHWAKVVLTDPEAAKYVHGIAVHWYLDFLAPAKATLGETHRLFPNTMLFASEACVGSKFWEQSVRLGSWDRGMQYSHSIITNLLYHVVGWTDWNLALNPEGGPNWVRNFVDSPIIVDITKDTFYKQPMFYHLGHFSKFIPEGSQRVGLVASQKNDLDAVALMHPDGSAVVVVLNRSSKDVPLTIKDPAVGFLETISPGYSIHTYLWRRQ",Tm,[7],50.3 ± 0.4 oC
"Mono-PEG5k (50 eq): rh-GCase modified by MeO-PEG-NHS (Mw 5000 Da), 50 eq of reagent (conjugate, UniProt P04062 40-536, looked up, PEG 5 kDa, 50 eq, rh-GCase modified by MeO-PEG-NHS (Mw 5000 Da), 50 eq of reagent) Lysosomal acid …: ARPCIPKSFGYSSVVCVCNATYCDSFDPPTFPALGTFSRYESTRSGRRMELSMGPIQANHTGTGLLLTLQPEQKFQKVKGFGGAMTDAAALNILALSPPAQNLLLKSYFSEEGIGYNIIRVPMASCDFSIRTYTYADTPDDFQLHNFSLPEEDTKLKIPLIHRALQLAQRPVSLLASPWTSPTWLKTNGAVNGKGSLKGQPGDIYHQTWARYFVKFLDAYAEHKLQFWAVTAENEPSAGLLSGYPFQCLGFTPEHQRDFIARDLGPTLANSTHHNVRLLMLDDQRLLLPHWAKVVLTDPEAAKYVHGIAVHWYLDFLAPAKATLGETHRLFPNTMLFASEACVGSKFWEQSVRLGSWDRGMQYSHSIITNLLYHVVGWTDWNLALNPEGGPNWVRNFVDSPIIVDITKDTFYKQPMFYHLGHFSKFIPEGSQRVGLVASQKNDLDAVALMHPDGSAVVVVLNRSSKDVPLTIKDPAVGFLETISPGYSIHTYLWRRQ",Tm,[7],51.7 ± 0.3 oC

# — PMC11032326, “A practical synthesis of nitrone-derived C5a-functionalized isofagomines as protein stabilizers to treat Gaucher disease” (Communications Chemistry, 2024)
